Results taken from PubChem BioAssay (NCI).
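48-hour exposure; five concentrations; linearly interpolated endpoints. The concentration for full growth arrest is given as TGI.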 *1 amine or outer side, *2 acyl side, *3 side chain or, on linkers, in order; H or OH if unused. Where a SMILES comes first, the peptide text is derived from it. Bridges are numbered along the chain shown (N, C = ends). [ ]: non-standard residue; d: D form. ξ: configuration not given here. X35 = CC[C@H](C)[C@@H](N[*:1])[C@@H](O)CC(=O)O[C@H](C(=O)[C@H](C)C(=O)[*:2])C(C)C; NMeY = CN[C@@H](Cc1ccc(O)cc1)C(=O)O; dNMeL = CN[C@H](CC(C)C)C(=O)O; ξΔPro = O=C(O)C1C=CCN1

How the values were obtained:
Assay in all cases: inhibition of tumour cell growth, NCI panel, 48 h
MALME-3M melanoma = test system: MALME-3M melanoma
SN12C renal = test system: SN12C renal
T-47D breast = test system: T-47D breast
A498 renal = test system: A498 renal
SK-OV-3 ovarian = test system: SK-OV-3 ovarian
KM12 colon = test system: KM12 colon
HS 578T breast = test system: HS 578T breast
MDA-N = test system: MDA-N
SF-295 CNS = test system: SF-295 CNS
ACHN renal = test system: ACHN renal
SF-539 CNS = test system: SF-539 CNS
EKVX NSCLC = test system: EKVX NSCLC
M14 melanoma = test system: M14 melanoma
NCI-H23 lung = test system: NCI-H23 lung
SR leukemia = test system: SR leukemia
NCI-H522 lung = test system: NCI-H522 lung
COLO 205 colon = test system: COLO 205 colon
OVCAR-4 ovarian = test system: OVCAR-4 ovarian
UACC-62 melanoma = test system: UACC-62 melanoma
OVCAR-3 ovarian = test system: OVCAR-3 ovarian
HCT-116 colon = test system: HCT-116 colon
SK-MEL-28 melanoma = test system: SK-MEL-28 melanoma
SNB-19 CNS = test system: SNB-19 CNS
HOP-62 NSCLC = test system: HOP-62 NSCLC
HCT-15 colon = test system: HCT-15 colon
RPMI-8226 leukemia = test system: RPMI-8226 leukemia
SK-MEL-2 melanoma = test system: SK-MEL-2 melanoma
BT-549 breast = test system: BT-549 breast
MDA-MB-435 = test system: MDA-MB-435
U251 CNS = test system: U251 CNS
CCRF-CEM leukemia = test system: CCRF-CEM leukemia
OVCAR-8 ovarian = test system: OVCAR-8 ovarian
SF-268 CNS = test system: SF-268 CNS
MOLT-4 leukemia = test system: MOLT-4 leukemia
A549 NSCLC = test system: A549 NSCLC
MDA-MB-231 breast = test system: MDA-MB-231 breast
K-562 leukemia = test system: K-562 leukemia
PC-3 prostate = test system: PC-3 prostate
TK-10 renal = test system: TK-10 renal
SK-MEL-5 melanoma = test system: SK-MEL-5 melanoma
HT29 colon = test system: HT29 colon
IGROV1 ovarian = test system: IGROV1 ovarian
RXF 393 renal = test system: RXF 393 renal
SW-620 colon = test system: SW-620 colon
MCF7 breast = test system: MCF7 breast
NCI-H460 lung = test system: NCI-H460 lung
HOP-92 NSCLC = test system: HOP-92 NSCLC
NCI/ADR-RES ovarian = test system: NCI/ADR-RES ovarian
CAKI-1 renal = test system: CAKI-1 renal
UACC-257 melanoma = test system: UACC-257 melanoma
OVCAR-5 ovarian = test system: OVCAR-5 ovarian
DU-145 prostate = test system: DU-145 prostate
786-0 renal = test system: 786-0 renal
HCC-2998 colon = test system: HCC-2998 colon
HL-60(TB) leukemia = test system: HL-60(TB) leukemia
LOX IMVI melanoma = test system: LOX IMVI melanoma
NCI-H226 lung = test system: NCI-H226 lung
UO-31 renal = test system: UO-31 renal
SNB-75 CNS = test system: SNB-75 CNS

Measured: TGI

O=C1c2ccccc2C(=O)c2nn(N=P(CP(=Nn3nc4c(n3)C(=O)c3ccccc3C4=O)(c3ccccc3)c3ccccc3)(c3ccccc3)c3ccccc3)nc21
not listed: NCI-H226 lung | UO-31 renal | SNB-75 CNS
> 100 µM: all other assays above

CC(=O)O[C@H]1CCC2[C@@H]3CCC4NC(=O)C(C#N)C[C@]4(C)C3CC[C@@]21C (some centres not stated)
not listed: NCI-H522 lung | SNB-75 CNS
> 10 µM: all other assays above

CC[C@H](C)[C@H]1NC(=O)[C@@H](NC(=O)[C@@H](CC(C)C)N(C)C(=O)C2C=CCN2)[C@@H](C)OC(=O)[C@H](Cc2ccc(OC)cc2)N(C)C(=O)[C@@H]2CCCN2C(=O)[C@H](CC(C)C)NC(=O)[C@@H](C)C(=O)[C@H](C(C)C)OC(=O)C[C@@H]1O (some centres not stated) (H-[ξΔPro][dNMeL]T[X35]LP[NMeY](Me); ester 3-C)
0.447 µM: KM12 colon
9.32 µM: COLO 205 colon
0.0115 µM: SK-MEL-2 melanoma
0.168 µM: EKVX NSCLC
0.0285 µM: RXF 393 renal
2.54 µM: SR leukemia
0.00602 µM: UACC-62 melanoma
0.0488 µM: HCC-2998 colon
< 0.005 µM: NCI-H226 lung | HS 578T breast | NCI-H522 lung | OVCAR-4 ovarian | SK-MEL-28 melanoma | HT29 colon
< 0.0464 µM: MDA-MB-231 breast
0.114 µM: NCI-H460 lung
0.251 µM: DU-145 prostate
0.345 µM: BT-549 breast
0.423 µM: MCF7 breast
0.378 µM: CAKI-1 renal
1.06 µM: PC-3 prostate
0.0146 µM: MALME-3M melanoma
5.41 µM: HCT-116 colon
0.183 µM: SK-OV-3 ovarian
0.055 µM: SF-295 CNS
0.0597 µM: 786-0 renal
0.52 µM: NCI/ADR-RES ovarian
0.081 µM: MDA-N
0.0363 µM: HOP-62 NSCLC
0.136 µM: T-47D breast
0.00802 µM: SF-268 CNS
0.738 µM: U251 CNS
0.0687 µM: MDA-MB-435
0.0198 µM: NCI-H23 lung
0.303 µM: UO-31 renal
0.111 µM: M14 melanoma
0.00706 µM: SNB-19 CNS
0.0139 µM: A498 renal
0.171 µM: HOP-92 NSCLC
0.0118 µM: OVCAR-8 ovarian
0.0107 µM: SNB-75 CNS
0.061 µM: ACHN renal
0.239 µM: UACC-257 melanoma
1.78 µM: HCT-15 colon
0.0516 µM: TK-10 renal
0.0161 µM: LOX IMVI melanoma
0.0756 µM: SK-MEL-5 melanoma
0.115 µM: IGROV1 ovarian
not listed: SF-539 CNS | OVCAR-3 ovarian | RPMI-8226 leukemia
> 50 µM: all other assays above

O=[N+]([O-])c1cc(F)ccc1Sc1ccccc1
not listed: UO-31 renal
> 10 µM: all other assays above
